Assay results from patent publication US20060240400A1, “High-density cell array board, process for producing the same and method of using the same” (priority 2003, published 2006).

Test system: rat primary hepatic solid tumor cells
Assay: Chemical assay on high-density cell array substrate (cell morphology after microdispensed dichlorobenzene)
Assay type: cell-based
Settings: after 10 minutes, 37° C., 0-4.5 mM in steps of 0.5 mM in 10 pl culture medium, single cells on substrates of Examples 1-5
Experimental: Poly-N-isopropylacrylamide, polyacrylamide and polydimethylsiloxane were used as cell adhesive polymer, hydrophilic polymer and highly hydrophobic polymer, respectively. These solutions were used for preparing each layer by the procedure described below. First, a solution of N-isopropylacrylamide monomer in isopropyl alcohol at the concentration shown in Table 1 was applied on a polystyrene base in an amount of 0.01 ml/cm^2 in order to prepare a cell adhesive polymer-coated domain. The coating was irradiated with electron beams at a dose of 0.25 MGy to coat the surface of the base with poly-N-isopropylacrylamide. After irradiation, the substrate was thoroughly washed with water and dried to give a substrate having a poly-N-isopropylacrylamide layer. Then, a solution of acrylamide monomer in isopropyl alcohol at the concentration shown in Table 1 was applied on the substrate in an amount of 0.01 ml/cm^2 in order to prepare a cell non-adhesive hydrophilic polymer-coated domain on the preceding layer. The coating was irradiated with electron beams at a dose similar to the value used in the method described above and then washed and dried to give a substrate having a polyacrylamide layer on the poly-N-isopropylacrylamide layer. […]

Substance: dichlorobenzene
- dichlorobenzene concentration in culture medium at which cells were morphologically altered: ≥ 2.5 mM
